Laboratory results as given in US9757477B2, “Imaging brown adipose tissue with curcumin derivatives” (The General Hospital Corporation, priority 2013, dated 2017).
Where “and” joins values, the source holds several entries; their conditions need not be identical. Identical values can stand only once. Entries after “also recorded” stand apart in the source; their conditions may differ.

How the values were obtained:
[1] = system: inguinal sWAT; test: Monitoring browning of subcutaneous WAT after CL 316,243 treatment; format: in vivo, C57BL6 mice; details: CL 316,243 1.0 mg/kg i.p. for 12 days
Protocol: (§1) Two-month old C57BL6 mice (n=5) were i.p. injected CL 316,243 (100 uL, 1.0 mg/kg) for 12 days, and the control mice (n=5) were i.p. injected with saline. On the 13th day, both groups were imaged after i.v. injection of CRANAD-29. Images were acquired at 1-, 2-, 4-hours after the probe injection. After the last imaging session, inguinal sWAT were dissected after scarification of the mice, and the dissected sWAT tissue was subjected to qPCR for UCP-1 expression and H&E staining

[2] = system: UCP-1; test: qPCR for UCP-1 expression in dissected sWAT; format: in vivo, C57BL6 mice; details: CL 316,243 1.0 mg/kg i.p. for 12 days
Protocol: as §1

[3] = system: BAT cells induced from wild-type brown preadipocytes; test: In vitro staining of BMPs-induced BAT cells (live cell confocal); format: cell-based; details: live cell confocal images
[4] = system: interscapular BAT; test: Time course and dose optimization of probe signal in BAT area after i.v. injection; format: in vivo, mice; details: mouse, in vivo, iv
Protocol: (§2) Next the time course of CRANAD-2 and CRANAD-3 accumulation in BAT area was investigated. […] Similarly, the signal of CRANAD-3 reached the uptake peak around one hour, and then gradually washed out (FIG. 8c-d). Accumulation of CRANAD-2 and -3 in BAT was further confirmed with ex vivo histology of the dissected BAT slices, performed as follows. The dissected BAT was fixed with 4% formalin at 4° C. overnight, and then embedded into OCT. BAT tissue was cut into 7 micron thickness slices, washed with PBS buffer, and co-stained with DAPI (Vectra Shield, Vector Lab, Burlingame, Calif.). Images were acquired with fast exposure to capture the dye signal in the oil droplets. To outline cell membrane cell autofluorescence was captured with long exposure after image of the dye signal from oil droplets was already acquired. To further validate the capacity of CRANAD-29 for BAT labeling, ex vivo histological microscopic imaging with CRANAD-29 was conducted. […] Gold standard H&E staining also provided similar images (FIG. 10a). […] The injection dose of CRANAD-29 was optimized, and the fluorescence signal reached its plateau at 0.4 mg/kg (FIG. 11). In the following studies, 0.1 mg/kg dose was used.

[5] = system: interscapular BAT; test: Re-testing of hits with stepwise dissection and NIR imaging; format: in vivo, mice
Protocol: Like protein/cell-based screening, hit re-testing experiments were conducted to validate the reliability of this approach. CRANAD-2, -3, LDS 722 and Rhodamine 640 were subjected to re-testing by repeating the above imaging procedure. Images were acquired one hour after probe injection.
Next, stepwise dissection and imaging were performed to track the source of the fluorescence contrast at the interscapular site. Skin and the thin WAT layer that covers BAT were first removed, and then BAT was dissected, and NIR images were captured at each step. […] The signal contribution from BAT (R(BAT)) was roughly estimated using the ratio of fluorescence signals acquired after (F(BAT)) and before (F(intact)) the first step dissection of skin and WAT.

[6] = Excitation and emission wavelengths of BAT imaging agents; format: physicochemical
Protocol: In some embodiments, the methods include irradiating the mammal with light of the appropriate wavelength to excite the BAT imaging agent, and detecting emissions therefrom.
Fluorescent dyes were purchased from Exciton Inc. (Dayton, Ohio) and Invitrogen. The reagents used for the synthesis were purchased from Aldrich and used without further purification. Column chromatography was performed on silica gel (SiliCycle Inc., 60 Å, […]) slurry packed into glass columns. 1H, 13C NMR spectra were recorded at 500 MHz and 125 MHz respectively, and reported in ppm downfield from tetramethylsilane. Fluorescence studies were carried out using a F-4500 Fluorescence Spectrophotometer (Hitachi). Mass spectra were obtained at Harvard University, Department of Chemistry Instrumentation Facility. Microscopic images were acquired with Nikon Eclipse 50i microscope. In vivo NIR imaging was performed using the IVIS® Spectrum animal imaging system (Caliper LifeSciences, Perkin Elmer, Hopkinton, Mass.), and data analysis was conducted using LivingImage® 4.2.1 software.

[7] = system: brown adipose cells; test: Ex vivo histology of dissected BAT slices; parameters: species or system mice; details: fluorescence microscopy
Protocol: as §2

[8] = system: interscapular BAT; test: Top-down whole-organism NIR fluorescence screening of dyes (ROI1/ROI2 contrast); format: in vivo, nude mice; details: for visible contrast around the interscapular BAT area: in vivo NIR images; for Ratio No 1 (ROI1/ROI2 average fluorescence intensity) / Ratio No 2 (ROI1/ROI2 average fluorescence intensity) / Ratio No 3 (ROI1/ROI2 average fluorescence intensity) / Ratio AVERAGE (mean ratio ROI1/ROI2): nude mice, one hour post-injection; for Ratio No 1 (ROI1/ROI2 average fluorescence intensity) / Ratio No 2 (ROI1/ROI2 average fluorescence intensity) / Ratio No 3 (ROI1/ROI2 average fluorescence intensity): 10 μg/mouse i.v.; for Ratio No 1 (ROI1/ROI2 average fluorescence intensity): first excitation/emission filter pair; for Ratio No 2 (ROI1/ROI2 average fluorescence intensity): second excitation/emission filter pair; for Ratio No 3 (ROI1/ROI2 average fluorescence intensity): third excitation/emission filter pair; for Ratio AVERAGE (mean ratio ROI1/ROI2): i.v., mean of three filter pairs, hit threshold >1.10
Protocol: 38 fluorescent dyes from commercial resources and from the inventors' laboratory were screened. Dyes with excitation range of 550-745 nm, emission range of 600-840 nm, and with molecular weight of less than 700 Da (except Cy5.5) (representative dyes are listed in FIG. 1d and the full list is shown in Table 2). Their hydrophobicities were not determined. The library was screened by intravenous tail injection of compounds into nude mice (10μg/mouse). Each dye was imaged with three optimized excitation/emission filter-pairs, and images at one hour after i.v. injection were acquired.
Top-down whole organism screening was performed as follows. Nude mice (nu/nu COX7) were purchased from Massachusetts General Hospital and Balb/c mice were from Jackson Laboratory. All animal experimental procedures were approved by the Institutional Animal Care and Use Committee (IACUC) at Massachusetts General Hospital. Dye stock solutions were prepared in DMSO. The final injection solution (0.1 mg/ml) was freshly prepared in a mixed solution of 20% DMSO, 20% Cremophor EL and 60% saline. Nude mice (n=5) were injected with a 100 μL dye solution via tail vein. For each imaging session, mice were anesthetized with a mixture of oxygen and isoflurane for 5 minutes, and then positioned into the imaging chamber of IVIS® Spectrum in vivo pre-clinical imaging system. Images were acquired at one-hour post-injection using sequence imaging with three excitation/emission filter pairs for each dye.
Hits selection was performed as follows. Hits from cell- or protein-based screening are usually selected by setting certain threshold. In the case of the top-down imaging screening, two methods were used (threshold and visible contrast) to select hits. First, three images obtained with three excitation/emission pairs were selected for each dye. These ex/em pairs were selected from the closest excitation and emission wavelengths of the tested dyes. For instance, 605/660 nm, 605/680 nm, 640/680 nm were selected for image acquisition of Nile blue (625/660 nm). The quantification of contrast for each image was calculated as a ratio of two ROIs (region of interest). ROI1 reflected the average signal from interscapular BAT and ROI2 was the average signal of the area that included BAT and white adipose tissue (WAT) around the interscapular site (FIG. 1b, left). The averaged fluorescent signal of ROI was used instead of the total signal, because the total signal depends on the area of ROI, whereas the averaged signal reflects the density of signal. The ratio of ROI1/ROI2 could reflect the signal/noise ratio of the tested probe, and could also reflect the selectivity of the probe for BAT over WAT. For each dye, three ROI1/ROI2 ratios obtained with the three filter pairs were calculated. The mean of the ratios was used as the threshold. If the mean ratio was >1.10, the dye was selected as a potential positive hit (FIG. 1c). Since the contrast of a dye in the top-down screening is in the visible range, the visible contrast around the interscapular BAT area was also tested for the hits with the mean ratio of >1.10. If both mean ratio and the visible contrast were positive, then the hit was subjected to re-testing procedure to validate its reliability as described below.
Although CRANAD-2 and CRANAD-3 were able to provide certain contrast for BAT in vivo, their excitation and emission wavelengths were still shorter than required for an ideal NIR imaging probe (both excitation and emission >640 nm). […] To seek better probes, a sub-library was synthesized based on the structures of the lead probes CRANAD-2 and -3. CRANAD-6, -19, -22, -24, -26, -32 and -43 were synthesized and tested (images and chemical structures, excitation and emission spectra are shown in FIG. 9 a-e). […] However, the ROI1/ROI2 ratio of CRANAD-22 was not improved (FIG. 9c).

[9] = system: differentiated 3T3-L1 cells; test: Probe uptake in differentiated 3T3-L1 cells (IVIS and two-photon imaging, competition); format: cell-based
Protocol: (§3) To investigate the facilitated diffusion of CRANAD-2, the time courses of CRANAD-2 uptake in 3T3-L1 cells were compared before and after differentiation. Two-photon imaging for 3T3-L1 cells was performed as follows. Fibroblast 3T3-L1 cells were differentiated following the protocol provided by Zenbio, Inc. (protocol No. ZBM0009.02). Ten microliters of CRANAD-2 (250 μM in DMSO) was added to the differentiated cells (1.0 ml). Cells were imaged after 10 min of incubation. A 940 nm laser was first used to capture an image for CRANAD-2 in 570-620 nm channel (Prairie Two-photon microscope, Middleton, Wis.). Next, the laser was tuned to 750 nm to capture autofluorescence of the cells to outline cell morphology.
For triglyceride competition, stock solutions of CRANAD-2 (250 μM) and triglyceride (5 mM) in DMSO were prepared. Before imaging, 10 μl of the stock solution was added to the cells.
(§4) IVIS imaging of 3T3-L1 cells with CRANAD-2 was performed as follows. To a 6-well plate seeded with preadipocytes or differentiated adipocytes, a 10 μL solution of CRANAD-2 (250 μM in DMSO) was added. The plate was subjected to imaging using IVIS imaging system with Ex=605 nm, Em=660 nm before and after addition of CRANAD-2. For triglyceride competition, the same protocol for two-photon imaging was used. The images were acquired at 20 min after addition of CRANAD-2. Studies were performed in triplicate.
(§5) The uptake of CRANAD-29 in 3T3-L1 cells before and after differentiation was compared. IVIS imaging of 3T3-L1 cells with CRANAD-29 was performed as follows. To a 6-well plate seeded with preadipocytes or differentiated adipocytes, a 10 μL solution of CRANAD-29 (250 μM in DMSO) was added. The plate was subjected to imaging using IVIS imaging system with Ex=640 nm, Em=700 nm before and after addition of CRANAD-29. For triglyceride competition and Hexarelin inhibition, the similar protocol for CRANAD-2 imaging was used. The final concentration of hexarelin was 12.5 μM, and the images were acquired at 3 hours after addition of CRANAD-29 and triglyceride/Hexarelin. Studies were performed in triplicate.

[10] = system: undifferentiated 3T3-L1 cells; test: Probe uptake in undifferentiated 3T3-L1 cells (IVIS imaging); format: cell-based
Protocol: as §3, §4, §5

Compound	selectivity for BAT (over WAT) ([5]; stepwise dissection)	Emission λ [6] [nm]	Excitation λ [6] [nm]	visible contrast around the interscapular BAT area [8]	Ratio No 1 (ROI1/ROI2 average fluorescence intensity) [8]	Ratio No 2 (ROI1/ROI2 average fluorescence intensity) [8]	Ratio No 3 (ROI1/ROI2 average fluorescence intensity) [8]	Ratio AVERAGE (mean ratio ROI1/ROI2) [8]	also measured
C[C@H](Cc1ccc2c(c1)OC(C(=O)[O-])(C(=O)[O-])O2)NC[C@H](O)c1cccc(Cl)c1.[Na+].[Na+] [CL 316,243]	–	–	–	–	–	–	–	–	H&E staining of sWAT slice of treated mice [1]: cells with multilocular lipid droplets; UCP-1 mRNA level in sWAT, treated mice vs control group [2]: 7.9 fold
CCN(CC)c1ccc(/C=C/C2=CC(/C=C/c3ccc(N(CC)CC)nc3)=[O+][B-](F)(F)O2)cn1 [CRANAD-3]	low	660	570	best contrast and clear triangular contour	1.34E+00	1.33E+00	1.31E+00	1.32 and 1.32E+00	staining of oil droplets in BAT cells [3]: able to clearly label oil droplets in BAT cells; time of uptake peak in BAT area [4]: around one; R(BAT), signal contribution from BAT, F(BAT)/F(intact) ([5]; fluorescence after vs before dissection of skin and WAT, roughly estimated): 0.51; contrast among the re-tested dyes ([5]; images one hour after probe injection): highest contrast; fluorescence signal from BAT (before vs after BAT removal) ([5]; stepwise dissection): able to label BAT; labeling in ex vivo histology of BAT slices [7]: labeled oil droplets in brown adipose cells
CN(C)c1ccc(/C=C/C2=CC(/C=C/c3ccc(N(C)C)c4ccccc34)=[O+][B-](F)(F)O2)c2ccccc12 [CRANAD-6]	–	750	620	–	–	–	–	–	–
F[B-]1(F)OC(/C=C/c2c(-c3ccccc3)[nH]c3ccccc23)=CC(/C=C/c2c(-c3ccccc3)[nH]c3ccccc23)=[O+]1 [CRANAD-26]	–	637	587	–	–	–	–	–	–
CN(C)c1ccc(/C=C/C=C/C2=CC(/C=C/C=C/c3ccc(N(C)C)cc3)=[O+][B-](F)(F)O2)cc1 [CRANAD-43]	not significantly increased; also recorded: poor selectivity	700	640	best contrast	–	–	–	–	ROI1/ROI2 ratio compared with lead probe ([8]; sub-library probes, compared with CRANAD-2): higher
CC[N+](CC)=c1ccc2nc3c(cc(N)c4ccccc43)oc-2c1 [Nile Blue]	–	–	–	–	1.00E+00	9.89E−01	9.62E−01	9.84E−01	uptake in differentiated cells over the time course ([9]; differentiated 3T3-L1 cells): rapidly reached the plateau; uptake with triglyceride competition ([9]; triglyceride added with probe, two-photon microscopy and IVIS): no significant decrease in uptake; uptake in undifferentiated cells over the time course [10]: rapidly reached the plateau
